For this assay, the target named is human PAD4 (Homo sapiens (Human), UniProt Q9UM07). The assay can be described thus: In Vitro PAD4 BAEE Biochemical Assay. Conditions: human PAD4, BAEE substrate; 5 nM PAD4, 2 mM calcium chloride, 3 mM BAEE; geometric mean of multiple experiments. How it is done:
The PCR product was ligated into linearized pET-SUMO vector (Invitrogen, Carlsbad, CA), which is part of the Champion™ pET SUMO Protein Expression System. After sequence verification for the correct orientation, the pET-SUMO-hPAD4 expression plasmid was transformed into BL21(DE3) cells.
E. Coli BL21(DE3) cells were inoculated in LB medium with kanamycin at 37° C. until A600 nm reached about 0.5. Protein expression was induced by addition of 0.5 mM IPTG (final) and continued overnight at 16° C. at 220 rpm.
Cells were harvested by centrifugation at 5000 rpm for 10 minutes at 4° C. The pellet was resuspended in 300 ml lysis buffer (20 mM Tris-HCl, pH 8.0, 1 mM EDTA, 500 mM NaCl, 1 mM (tris(2-carboxyethyl)phosphine) (TCEP), 10% glycerol, and 1% Triton X100 and EDTA free protease inhibitor) and lysed by 3× passage through a microfluidizer (Microfluidics, Newton, MA) at 18,000 psi. The cell lysate was clarified by centrifugation at 30,000 rpm for 60 minutes at 4° C. The supernatant was applied to a 5 ml Ni-HP (GE HealthCare Cat #17524701) column preequilibrated in Ni-A buffer (20 mM Tris-HCl, pH 8.0, 20 mM Imidazole, 1 mM TCEP, 10% glycerol, and 400 mM NaCl). Bound protein was eluted with a 0-100% linear gradient of 100 mL Ni-B buffer (Ni A buffer+0.5 M Imidazole).
The His-Sumo tag was cleaved using sumo protease (Thermo Fisher Cat #: 12588018) while dialyzing in buffer (20 mM Tris-HCl, pH 8.0, 1 mM EDTA, 500 mM NaCl, 1 mM TCEP, 10% glycerol). The protein was then reloaded onto a Ni-HP column for a reverse purification step and recovered in flow through fraction. The protein with His-Sumo tag removed was then polished using a 16/60 Superdex-200 gel filtration column with gel filtration buffer (20 mM Tris pH 8.0, NaCl 400 mM and 1 mM TCEP). The fractions containing the protein were pulled and frozen at −80° C.
In Vitro PAD4 BAEE Biochemical Assay
The enzymatic activity of human PAD4 was monitored in a biochemical assay in the presence or absence of compounds using the small peptidyl arginine mimic BAEE (Nα-Benzoyl-L-arginine ethyl ester hydrochloride) as substrate. PAD4 activity led to deimination of BAEE and release of ammonia. Levels of ammonia were monitored by using an amine coupling reaction and were indicative of PAD4 enzymatic activity.
One hundred nanoliters of test compounds dissolved in DMSO at various concentrations were dispensed into a 384-well black OptiPlate using a Labcyte Echo instrument. Ten microliters of a solution of recombinant PAD4 and calcium chloride diluted in PAD4 assay buffer (50 mM MOPS [3-(N-morpholino) propanesulfonic acid], pH 7.6; 50 mM sodium chloride; 0.05% Tween-20; 2 mM dithiothreitol) was added to the compound-containing plate and was incubated for 30 minutes at 25° C. Ten microliters of a solution of BAEE (Sigma-Aldrich #B4500) diluted in PAD4 assay buffer was then added to start the reaction. Final concentrations were 5 nM PAD4, 2 mM calcium chloride, and 3 mM BAEE. The reaction mixture was incubated at 25° C. for 2 hours and was stopped with the addition of 10 microliters of a solution of 75 mM EDTA (Ethylenediaminetetraacetic acid) in PAD4 assay buffer. Thirty microliters of detection solution (5 mM o-phthalaldehyde, 50 mM MOPS [3-(N-morpholino) propanesulfonic acid], pH 7.6; 50 mM sodium chloride; 0.05% Tween-20; 5 mM dithiothreitol) was then added and the reaction was incubated for 1 hour at 25° C. The level of fluorescent thiol-substituted isoindole resulting from the reaction of ammonia, o-phthalaldehyde, and dithiothreitol was measured on an Envision plate reader (PerkinElmer) with 405 nm excitation and 535 nm emission.
human PAD4, sequence (Q9UM07 2-663): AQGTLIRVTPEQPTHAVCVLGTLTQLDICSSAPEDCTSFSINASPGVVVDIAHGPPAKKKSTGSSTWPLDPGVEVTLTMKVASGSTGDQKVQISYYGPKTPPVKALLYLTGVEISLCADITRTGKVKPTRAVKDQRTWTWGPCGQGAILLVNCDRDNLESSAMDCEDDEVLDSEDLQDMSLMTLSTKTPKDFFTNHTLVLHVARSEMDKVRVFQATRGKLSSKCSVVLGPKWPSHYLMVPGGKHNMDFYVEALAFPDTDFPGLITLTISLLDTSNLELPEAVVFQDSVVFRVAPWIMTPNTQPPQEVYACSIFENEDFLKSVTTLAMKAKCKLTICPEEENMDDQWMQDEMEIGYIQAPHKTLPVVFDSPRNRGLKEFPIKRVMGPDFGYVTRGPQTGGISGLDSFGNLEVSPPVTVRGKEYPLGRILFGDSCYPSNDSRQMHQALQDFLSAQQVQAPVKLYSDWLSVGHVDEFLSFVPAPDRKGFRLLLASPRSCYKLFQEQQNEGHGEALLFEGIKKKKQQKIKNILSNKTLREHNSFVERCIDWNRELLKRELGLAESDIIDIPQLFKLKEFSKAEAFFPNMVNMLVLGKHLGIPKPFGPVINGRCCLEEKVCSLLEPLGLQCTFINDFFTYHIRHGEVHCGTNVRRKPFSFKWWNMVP
What is called IC50 is the concentration at which inhibition is half-maximal. Consider “2-(1-(cyclopropylmethyl)- 6-((N-(difluoromethyl) methyl)sulfonamido)- 1H-pyrrolo[2,3-b]pyridin-2- yl)-6-fluoro-N-((3S,4S)- 4-fluoropiperidin- 3-yl)-1-methyl-1H- benzo[d]imidazole-5- carboxamide [Example 93]”, for which the IC50 amounted to 146 nM.

With `COc1cc(C(=O)N[C@@H]2CNC[C@H]2NC(=O)/C=C/CN(C)C)cc2nc(-c3cc4ccc(N(C(F)F)S(C)(=O)=O)nc4n3CC3CC3)n(C)c12` (stereo in doubt) [Example 71, 2-[1-(cyclopropylmethyl)-6-[difluoromethyl(methylsulfonyl)amino]pyrrolo[2,3-b]pyridin-2-yl]-N-[(3R,4R)-4-[[(E)-4-(dimethylamino)but-2-enoyl]amino]pyrrolidin-3-yl]-7-methoxy-1-methyl-benzimidazole-5-carboxamide], the IC50 came out at 490 nM.

`COc1cc(C(=O)N2CCC[C@@H](N)C2)cc2nc(-c3cc4ccc(NS(C)(=O)=O)cc4n3CC3CC3)n(C)c12` [Example 1, (R)-N-(2-(5-(3-aminopiperidine-1-carbonyl)-7-methoxy-1-methyl-1H-benzo[d]imidazol-2-yl)-1-(cyclopropylmethyl)-1H-indol-6-yl)methanesulfonamide]: the IC50 was 1580 nM.

Turning to `COc1cc(C(=O)N2CCC[C@@H](N)C2)cc2nc(-c3cc4ccc(N(C)S(C)(=O)=O)cc4n3CC3CC3)n(C)c12` [Example 2, (R)-N-(2-(5-(3-aminopiperidine-1-carbonyl)-7-methoxy-1-methyl-1H-benzo[d]imidazol-2-yl)-1-(cyclopropylmethyl)-1H-indol-6-yl)-N-methylmethanesulfonamide], the IC50 was 210 nM.

With `COc1cc(C(=O)N2CCC[C@@H](N)C2)cc2nc(-c3cc4ccc(N(C)S(C)(=O)=O)nc4n3CC3CC3)n(C)c12` [Example 3, (R)-N-(2-(5-(3-aminopiperidine-1-carbonyl)-7-methoxy-1-methyl-1H-benzo[d]imidazol-2-yl)-1-(cyclopropylmethyl)-1H-pyrrolo [2,3-b]pyridin-6-yl)-N-methylmethanesulfonamide], the IC50 is 122 nM.

`COc1cc(C(=O)N2CCC[C@@H](N)[C@H]2C)cc2nc(-c3cc4ccc(N(C)S(C)(=O)=O)nc4n3CC3CC3)n(C)c12` [Example 4, N-(2-(5-((2R,3R)-3-amino-2-methylpiperidine-1-carbonyl)-7-methoxy-1-methyl-1H-benzo[d]imimidazol-2-yl)-1-(cyclopropylmethyl)-1H-pyrrolo [2,3-b]pyridin-6-yl)-N-methylmethanesulfonamide]: the half-inhibitory concentration (IC50) worked out at 149 nM.

For `CCN(c1ccc2cc(-c3nc4cc(C(=O)N5CCC[C@@H](N)C5)cc(OC)c4n3C)n(CC3CC3)c2n1)S(C)(=O)=O` [Example 5, (R)-N-(2-(5-(3-aminopiperidine-1-carbonyl)-7-methoxy-1-methyl-1H-benzo[d]imidazol-2-yl)-1-(cyclopropylmethyl)-1H-pyrrolo [2,3-b]pyridin-6-yl)-N-ethylmethanesulfonamide], the IC50 is 78.6 nM.

As to `COc1cc(C(=O)N2CCC[C@@H](N)C2)cc2nc(-c3cc4ccc(N(C(C)C)S(C)(=O)=O)nc4n3CC3CC3)n(C)c12` [Example 6, (R)-N-(2-(5-(3-aminopiperidine-1-carbonyl)-7-methoxy-1-methyl-1H-benzo[d]imidazol-2-yl)-1-(cyclopropylmethyl)-1H-pyrrolo [2,3-b]pyridin-6-yl)-N-isopropylmethanesulfonamide], the IC50 was 59.5 nM.

As to `CCS(=O)(=O)N(C)c1ccc2cc(-c3nc4cc(C(=O)N5CCC[C@@H](N)C5)cc(OC)c4n3C)n(CC3CC3)c2n1` [Example 7, (R)-N-(2-(5-(3-aminopiperidine-1-carbonyl)-7-methoxy-1-methyl-1H-benzo[d]imidazol-2-yl)-1-(cyclopropylmethyl)-1H-pyrrolo [2,3-b]pyridin-6-yl)-N-methylethanesulfonamide], the IC50 was found to be 164 nM.

Consider `COc1cc(C(=O)N2CCC[C@@H](N)C2)cc2nc(-c3cc4ccc(N(C)S(=O)(=O)C5CC5)nc4n3CC3CC3)n(C)c12` [Example 8, (R)-N-(2-(5-(3-aminopiperidine-1-carbonyl)-7-methoxy-1-methyl-1H-benzo[d]imidazol-2-yl)-1-(cyclopropylmethyl)-1H-pyrrolo [2,3-b]pyridin-6-yl)-N-methylcyclopropanesulfonamide], for which the IC50 was found to be 190 nM.

As to `COc1cc(C(=O)N2CCC[C@@H](N)C2)cc2nc(-c3cc4ccc(N(C)S(=O)(=O)C(C)C)nc4n3CC3CC3)n(C)c12` [Example 9, (R)-N-(2-(5-(3-aminopiperidine-1-carbonyl)-7-methoxy-1-methyl-1H-benzo[d]imidazol-2-yl)-1-(cyclopropylmethyl)-1H-pyrrolo [2,3-b]pyridin-6-yl)-N-methylpropane-2-sulfonamide], the IC50 turned out to be 238 nM.

On to `CCCN(c1ccc2cc(-c3nc4cc(C(=O)N5CCC[C@@H](N)C5)cc(OC)c4n3C)n(CC3CC3)c2n1)S(C)(=O)=O` [Example 10, (R)-N-(2-(5-(3-aminopiperidine-1-carbonyl)-7-methoxy-1-methyl-1H-benzo[d]imidazol-2-yl)-1-(cyclopropylmethyl)-1H-pyrrolo [2,3-b]pyridin-6-yl)-N-propylmethanesulfonamide], for which the IC50 turned out to be 330 nM.

Take `COc1cc(C(=O)N2CCC[C@@H](N)C2)cc2nc(-c3cc4ccc(N(Cc5ccccc5)S(C)(=O)=O)nc4n3CC3CC3)n(C)c12` [Example 11, (R)-N-(2-(5-(3-aminopiperidine-1-carbonyl)-7-methoxy-1-methyl-1H-benzo[d]imidazol-2-yl)-1-(cyclopropylmethyl)-1H-pyrrolo [2,3-b]pyridin-6-yl)-N-benzylmethanesulfonamide]: the IC50 is 192 nM.

On to `COc1cc(C(=O)N2CCC[C@@H](N)C2)cc2nc(-c3cc4ccc(N(C)S(=O)(=O)c5ccccc5)nc4n3CC3CC3)n(C)c12` [Example 12, (R)-N-(2-(5-(3-aminopiperidine-1-carbonyl)-7-methoxy-1-methyl-1H-benzo[d]imidazol-2-yl)-1-(cyclopropylmethyl)-1H-pyrrolo [2,3-b]pyridin-6-yl)-N-methylbenzenesulfonamide], for which the IC50 came to 225 nM.

Regarding `COc1cc(C(=O)N2CCC[C@@H](N)C2)cc2nc(-c3cc4ccc(N(c5ccccc5)S(C)(=O)=O)nc4n3CC3CC3)n(C)c12` [Example 13, (R)-N-(2-(5-(3-aminopiperidine-1-carbonyl)-7-methoxy-1-methyl-1H-benzo[d]imidazol-2-yl)-1-(cyclopropylmethyl)-1H-pyrrolo [2,3-b]pyridin-6-yl)-N-phenylmethanesulfonamide], the IC50 came out at 3570 nM.

On to `CCCCS(=O)(=O)N(C)c1ccc2cc(-c3nc4cc(C(=O)N5CCC[C@@H](N)C5)cc(OC)c4n3C)n(CC3CC3)c2n1` [Example 14, (R)-N-(2-(5-(3-aminopiperidine-1-carbonyl)-7-methoxy-1-methyl-1H-benzo[d]imidazol-2-yl)-1-(cyclopropylmethyl)-1H-pyrrolo [2,3-b]pyridin-6-yl)-N-methylbutane-1-sulfonamide], for which the IC50 was determined as 249 nM.

Regarding `COc1cc(C(=O)N2CCC[C@@H](N)C2)cc2nc(-c3cc4ccc(N(C5CCC5)S(C)(=O)=O)nc4n3CC3CC3)n(C)c12` [Example 15, (R)-N-(2-(5-(3-aminopiperidine-1-carbonyl)-7-methoxy-1-methyl-1H-benzo[d]imidazol-2-yl)-1-(cyclopropylmethyl)-1H-pyrrolo [2,3-b]pyridin-6-yl)-N-cyclobutylmethanesulfonamide], the IC50 amounted to 136 nM.

Values taken from patent publication US11878965B2, “Inhibitors of peptidylarginine deiminases” (Gilead Sciences, Inc., priority 2020, dated 2024).
